How the values were obtained:
Experiment in all cases: relative viability (nuclei count vs DMSO), 5 days (fraction); higher = more cells survive
[1] = tested on: NCI-H2126
Summary of the method: (§1)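 Lung cancer cell lines were pin-tool dosed in 1536-well plates on the day after seeding, with either a lone drug or a fixed anchor-drug dose plus five library-drug doses (not always all listed) in √10 steps. Nuclei were counted on 4× images after 5 days. Relative viability is the ratio of treated-well to vehicle-well nuclei counts, with each value a median of duplicate plates.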

[2] = tested on: UMC-11
Summary of the method: as §1

[3] = tested on: COR-L 105
Summary of the method: as §1

[4] = tested on: NCI-H1755
Summary of the method: as §1

[5] = tested on: NCI-H1975
Summary of the method: as §1

[6] = tested on: NCI-H1993
Summary of the method: as §1

[7] = tested on: NCI-H1666
Summary of the method: as §1

[8] = tested on: NCI-H3122
Summary of the method: as §1

[9] = tested on: ABC-1
Summary of the method: as §1

[10] = tested on: NCI-H2023
Summary of the method: as §1

[11] = tested on: HCC-78
Summary of the method: as §1

[12] = tested on: HOP-62
Summary of the method: as §1

[13] = tested on: NCI-H2085
Summary of the method: as §1

[14] = tested on: NCI-H322M
Summary of the method: as §1

[15] = tested on: LXF-289
Summary of the method: as §1

[16] = tested on: ChaGo-K-1
Summary of the method: as §1

[17] = tested on: HCC-15
Summary of the method: as §1

[18] = tested on: NCI-H1915
Summary of the method: as §1

[19] = tested on: NCI-H358
Summary of the method: as §1

[20] = tested on: NCI-H441
Summary of the method: as §1

[21] = tested on: EMC-BAC-2
Summary of the method: as §1

[22] = tested on: EPLC-272H
Summary of the method: as §1

[23] = tested on: NCI-H522
Summary of the method: as §1

COc1cc(N2CCC(C(N)=O)CC2)ccc1Nc1nc(N)c(Cl)c(Nc2ccccc2S(=O)(=O)C(C)C)n1 [HG-5-88-01] + Nc1ncn([C@H]2C[C@H](O)[C@@H](CO)O2)c(=O)n1 [Decitabine] (partner 2 µM)
relative viability ([1]; first compound 0.04 µM): 0.603
relative viability ([1]; first compound 0.1265 µM): 0.586
relative viability ([1]; first compound 0.4 µM): 0.568
relative viability ([1]; first compound 1.265 µM): 0.6
relative viability ([1]; first compound 4 µM): 0.556
relative viability ([2]; first compound 0.04 µM): 0.638
relative viability ([2]; first compound 0.1265 µM): 0.706
relative viability ([2]; first compound 0.4 µM): 0.604
relative viability ([2]; first compound 1.265 µM): 0.526
relative viability ([2]; first compound 4 µM): 0.672
relative viability ([3]; first compound 0.04 µM): 0.569
relative viability ([3]; first compound 0.1265 µM): 0.706
relative viability ([3]; first compound 0.4 µM): 0.628
relative viability ([3]; first compound 1.265 µM): 0.582
relative viability ([3]; first compound 4 µM): 0.577
relative viability ([4]; first compound 0.04 µM): 0.739
relative viability ([4]; first compound 0.1265 µM): 0.732
relative viability ([4]; first compound 0.4 µM): 0.829
relative viability ([4]; first compound 1.265 µM): 0.688
relative viability ([4]; first compound 4 µM): 0.836
relative viability ([5]; first compound 0.04 µM): 0.409
relative viability ([5]; first compound 0.1265 µM): 0.474
relative viability ([5]; first compound 0.4 µM): 0.382
relative viability ([5]; first compound 1.265 µM): 0.403
relative viability ([5]; first compound 4 µM): 0.273
relative viability ([6]; first compound 0.04 µM): 0.583
relative viability ([6]; first compound 0.1265 µM): 0.709
relative viability ([6]; first compound 0.4 µM): 0.586
relative viability ([6]; first compound 4 µM): 0.545
relative viability ([7]; first compound 0.04 µM): 0.66
relative viability ([7]; first compound 0.1265 µM): 0.743
relative viability ([7]; first compound 0.4 µM): 0.779
relative viability ([7]; first compound 1.265 µM): 0.622
relative viability ([7]; first compound 4 µM): 0.566
relative viability ([8]; first compound 0.04 µM): 0.365
relative viability ([8]; first compound 0.1265 µM): 0.279
relative viability ([8]; first compound 0.4 µM): 0.223
relative viability ([8]; first compound 1.265 µM): 0.127
relative viability ([8]; first compound 4 µM): 0.0935
relative viability ([9]; first compound 0.04 µM): 0.998
relative viability ([9]; first compound 0.1265 µM): 1.09
relative viability ([9]; first compound 0.4 µM): 1.1
relative viability ([9]; first compound 1.265 µM): 0.884
relative viability ([9]; first compound 4 µM): 0.946
relative viability ([10]; first compound 0.04 µM): 0.223
relative viability ([10]; first compound 0.1265 µM): 0.244
relative viability ([10]; first compound 0.4 µM): 0.229
relative viability ([10]; first compound 1.265 µM): 0.236
relative viability ([10]; first compound 4 µM): 0.256
relative viability ([11]; first compound 0.04 µM): 0.696
relative viability ([11]; first compound 0.1265 µM): 0.598
relative viability ([11]; first compound 0.4 µM): 0.62
relative viability ([11]; first compound 1.265 µM): 0.411
relative viability ([11]; first compound 4 µM): 0.432
relative viability ([12]; first compound 0.04 µM): 0.209
relative viability ([12]; first compound 0.1265 µM): 0.226
relative viability ([12]; first compound 0.4 µM): 0.232
relative viability ([12]; first compound 1.265 µM): 0.252
relative viability ([12]; first compound 4 µM): 0.28
relative viability ([13]; first compound 0.04 µM): 0.6
relative viability ([13]; first compound 0.1265 µM): 0.625
relative viability ([13]; first compound 0.4 µM): 0.582
relative viability ([13]; first compound 1.265 µM): 0.544
relative viability ([13]; first compound 4 µM): 0.607
relative viability ([14]; first compound 0.04 µM): 0.693
relative viability ([14]; first compound 0.1265 µM): 0.68
relative viability ([14]; first compound 0.4 µM): 0.781
relative viability ([14]; first compound 1.265 µM): 0.483
relative viability ([14]; first compound 4 µM): 0.706
relative viability ([15]; first compound 0.04 µM): 0.324
relative viability ([15]; first compound 0.1265 µM): 0.402
relative viability ([15]; first compound 0.4 µM): 0.464
relative viability ([15]; first compound 1.265 µM): 0.423
relative viability ([15]; first compound 4 µM): 0.427
relative viability ([16]; first compound 0.04 µM): 0.524
relative viability ([16]; first compound 0.1265 µM): 0.515
relative viability ([16]; first compound 0.4 µM): 0.51
relative viability ([16]; first compound 1.265 µM): 0.542
relative viability ([16]; first compound 4 µM): 0.552
relative viability ([17]; first compound 0.04 µM): 0.682
relative viability ([17]; first compound 0.1265 µM): 0.709
relative viability ([17]; first compound 0.4 µM): 0.487
relative viability ([17]; first compound 1.265 µM): 0.572
relative viability ([17]; first compound 4 µM): 0.477
relative viability ([18]; first compound 0.04 µM): 0.254
relative viability ([18]; first compound 0.1265 µM): 0.279
relative viability ([18]; first compound 0.4 µM): 0.275
relative viability ([18]; first compound 1.265 µM): 0.248
relative viability ([18]; first compound 4 µM): 0.254
relative viability ([19]; first compound 0.04 µM): 0.208
relative viability ([19]; first compound 0.1265 µM): 0.229
relative viability ([19]; first compound 0.4 µM): 0.285
relative viability ([19]; first compound 1.265 µM): 0.192
relative viability ([19]; first compound 4 µM): 0.125
relative viability ([20]; first compound 0.04 µM): 0.235
relative viability ([20]; first compound 0.1265 µM): 0.28
relative viability ([20]; first compound 0.4 µM): 0.272
relative viability ([20]; first compound 1.265 µM): 0.231
relative viability ([20]; first compound 4 µM): 0.271
relative viability ([21]; first compound 0.04 µM): 1
relative viability ([21]; first compound 0.1265 µM): 1.07
relative viability ([21]; first compound 0.4 µM): 0.965
relative viability ([21]; first compound 1.265 µM): 0.874
relative viability ([21]; first compound 4 µM): 0.802
relative viability ([22]; first compound 0.04 µM): 0.32
relative viability ([22]; first compound 0.1265 µM): 0.371
relative viability ([22]; first compound 0.4 µM): 0.47
relative viability ([22]; first compound 1.265 µM): 0.266
relative viability ([22]; first compound 4 µM): 0.117
relative viability ([23]; first compound 0.04 µM): 0.702
relative viability ([23]; first compound 0.1265 µM): 0.773
relative viability ([23]; first compound 0.4 µM): 0.69
relative viability ([23]; first compound 1.265 µM): 0.687
relative viability ([23]; first compound 4 µM): 0.649

— the supplement of paper PMC10307832
